# Source: PMC5841300, “Magnolol restores the activity of meropenem against NDM-1-producing Escherichia coli by inhibiting the activity of metallo-beta-lactamase” (Cell Death Discovery, 2018)
# Legend:
# [1] = molecular target: T1, New Delhi metallo-β-lactamase-1 (NDM-1) (Escherichia coli, UniProt E5KIY2, K211A); experiment: fluorescence quenching (binding constant KA)
# T1 construct: gene blaNDM-1; NDM-1 without the signal peptide, amino-terminal histidine tag
# [2] = molecular target: T2, New Delhi metallo-β-lactamase-1 (NDM-1) (Escherichia coli, UniProt E5KIY2, G219A); experiment: fluorescence quenching (binding constant KA)
# T2 construct: gene blaNDM-1; NDM-1 without the signal peptide, amino-terminal histidine tag
# [3] = molecular target: T3, New Delhi metallo-β-lactamase-1 (NDM-1) (Escherichia coli, UniProt E5KIY2); experiment: purified recombinant enzyme, nitrocefin hydrolysis assay; also fluorescence quenching, KA […] ([…] L/mol); format: biochemical
# T3 construct: gene blaNDM-1; NDM-1 without the signal peptide, amino-terminal histidine tag
compound,measurement,setting,value
C=CCc1ccc(O)c(-c2cc(CC=C)ccc2O)c1 [magnolol],Kd,[1],20.8 µM
same,Kd,[2],18.2 µM
same,IC50,[3],24.3 µM
